Counter-ions that a name gives are not always drawn.
Target: USP7 (Homo sapiens (Human), UniProt Q93009)
Assay: USP7 fluorescence polarisation (FP) biochemical assay, ubiquitin-Lys-TAMRA substrate
Conditions: Table 4, biochemical assay; average of at least duplicate experiments; read-out: USP7 IC50
Protocol: Measurement of USP7 Inhibitory Activity
USP7 activity was monitored in a fluorescence polarisation (FP) homogeneous assay using the isopeptide ubiquitin-Lys-TAMRA substrate (U-558, Boston Biochem). Full-length USP7 was purchased from Boston Biochem (His6-USP7FL, E-519). Unless otherwise stated, all other reagents were purchased from Sigma-Aldrich. Enzymatic reactions were conducted in black flat-bottom polystyrene 384-well plates (Nunc) and 15 μL total volume. USP7 (2.5 nM, 5 μL) was incubated in assay buffer (50 mM HEPES (pH 7.2), 150 mM NaCl, 0.5 mM EDTA, 5 mM DTT, 0.05% BSA (w/v), 0.05% CHAPS) in the presence or absence of inhibitor (5 μl). Inhibitors were stored as 10 mM DMSO stocks in an inert environment (low humidity, dark, low oxygen, room temperature) using a Storage Pod System and serial dilutions were prepared in buffer just prior to the assay (from 200 to 0.1 μM, 8 dp curve). […] FP was measured every 15 min over a period of 1.5 h (within the linear range of the assay) using a Synergy 4 plate reader (BioTek) exciting at 530 nm and measuring the amount of parallel and perpendicular light at 575 nm. The FP signal was subsequently normalised to the control without compound present.

USP7, sequence (Q93009 whole entry): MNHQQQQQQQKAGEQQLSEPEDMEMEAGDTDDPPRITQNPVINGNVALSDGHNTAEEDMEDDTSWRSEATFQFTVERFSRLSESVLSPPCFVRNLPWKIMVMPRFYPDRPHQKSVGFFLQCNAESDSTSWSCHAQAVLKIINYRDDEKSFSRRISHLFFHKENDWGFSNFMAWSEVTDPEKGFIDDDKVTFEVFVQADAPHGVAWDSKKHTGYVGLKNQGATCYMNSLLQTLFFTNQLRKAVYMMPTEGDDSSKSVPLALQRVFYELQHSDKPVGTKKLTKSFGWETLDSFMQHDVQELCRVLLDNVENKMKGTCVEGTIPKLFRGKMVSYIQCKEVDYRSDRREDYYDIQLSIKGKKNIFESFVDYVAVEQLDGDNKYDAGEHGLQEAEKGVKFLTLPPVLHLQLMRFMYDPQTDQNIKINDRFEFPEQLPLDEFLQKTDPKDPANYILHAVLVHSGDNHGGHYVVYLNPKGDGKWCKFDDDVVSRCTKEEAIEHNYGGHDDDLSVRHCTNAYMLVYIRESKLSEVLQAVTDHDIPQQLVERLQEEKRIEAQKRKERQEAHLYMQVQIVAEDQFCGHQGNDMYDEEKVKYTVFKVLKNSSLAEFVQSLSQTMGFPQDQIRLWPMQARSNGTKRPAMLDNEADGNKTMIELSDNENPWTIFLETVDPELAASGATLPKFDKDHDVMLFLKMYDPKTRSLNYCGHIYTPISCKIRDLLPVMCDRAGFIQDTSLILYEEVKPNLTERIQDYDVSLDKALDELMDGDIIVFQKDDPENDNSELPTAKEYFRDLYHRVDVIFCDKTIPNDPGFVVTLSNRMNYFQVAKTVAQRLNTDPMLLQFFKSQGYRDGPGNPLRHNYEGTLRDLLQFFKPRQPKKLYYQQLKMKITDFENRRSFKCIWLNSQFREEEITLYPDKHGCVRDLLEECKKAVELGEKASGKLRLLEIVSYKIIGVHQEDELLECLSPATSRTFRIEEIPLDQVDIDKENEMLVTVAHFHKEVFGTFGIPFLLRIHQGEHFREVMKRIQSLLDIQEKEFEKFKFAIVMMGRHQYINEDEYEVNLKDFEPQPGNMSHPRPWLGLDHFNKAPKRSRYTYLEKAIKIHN

| IC50 [nM] | Compound |
| --- | --- |
| 1000 to 200000 | O=C(CCC1CCC1)N1CCC(O)(Cn2cnc(NCCN3CCCC3)cc2=O)CC1 [Example 183, 3-((1-(3-Cyclobutylpropanoyl)-4-hydroxypiperidin-4-yl)methyl)-6-((2-(pyrrolidin-1-yl)ethyl)amino)pyrimidin-4(3H)-one] |
| 1000 to 200000 | C[C@H](CC(=O)N1CCC(O)(Cn2cnc(NCCNc3ccccc3)cc2=O)CC1)c1ccccc1 [Example 146, (R)-3-((4-hydroxy-1-(3-phenylbutanoyl)piperidin-4-yl)methyl)-6-((2-(phenylamino)ethyl)amino)pyrimidin-4(3H)-one] |
| 1000 to 200000 | CC(=O)N1CCC(O)(Cn2cnc(NCCN3CCCC3)cc2=O)CC1 [Example 132, 3-((1-Acetyl-4-hydroxypiperidin-4-yl)methyl)-6-((2-(pyrrolidin-1-yl)ethyl)amino)pyrimidin-4(3H)-one] |
| 250 to 999 | Cn1nccc1-c1cc(-n2c(Cl)cc3c(=O)n(CC4(O)CCN(C(=O)c5cnc(C6CC6)o5)CC4)cnc32)ccc1F [Example 230, 6-Chloro-3-((1-(2-cyclopropyloxazole-5-carbonyl)-4-hydroxypiperidin-4-yl)methyl)-7-(4-fluoro-3-(1-methyl-1H-pyrazol-5-yl)phenyl)-3H-pyrrolo[2,3-d]pyrimidin-4(7H)-one] |
| 1000 to 200000 | C[C@H](CC(=O)N1CCC(O)(Cn2cnc(N3CC(F)C3)cc2=O)CC1)c1ccccc1 [Example 165, (R)-6-(3-fluoroazetidin-1-yl)-3-((4-hydroxy-1-(3-phenylbutanoyl)piperidin-4-yl)methyl)pyrimidin-4(3H)-one] |
| < 250 | Cn1nc2c(=O)n(CC3(O)CCN(C(=O)C[C@H](c4ccccc4)C(F)(F)F)CC3)cnc2c1-c1ccc([C@H](N)C(F)F)cc1 [Example 122, 3-(4-((S)-1-Amino-2,2-difluoroethyl)phenyl)-6-((4-hydroxy-1-((R)-4,4,4-trifluoro-3-phenylbutanoyl)piperidin-4-yl)methyl)-2-methyl-2H-pyrazolo[4,3-d]pyrimidin-7(6H)-one] |
| 1000 to 200000 | Cn1c(Cl)cc2c(=O)n(CC3(O)CCN(C(=O)C4(C)CC4)CC3)cnc21 [Example 209, 6-Chloro-3-((4-hydroxy-1-(1-methylcyclopropanecarbonyl)piperidin-4-yl)methyl)-7-methyl-3H-pyrrolo[2,3-d]pyrimidin-4(7H)-one] |
| 1000 to 200000 | C[C@H](CC(=O)N1CCC(O)(Cn2cnc(N3CCC4(CCOC4)C3)cc2=O)CC1)c1ccccc1 (stereo partly drawn) [Example 152, 3-((4-hydroxy-1-((R)-3-phenylbutanoyl)piperidin-4-yl)methyl)-6-(2-oxa-7-azaspiro[4.4]nonan-7-yl)pyrimidin-4(3H)-one] |
| 1000 to 200000 | CC(C)c1cc(=O)n(CC2(O)CCN(C(=O)C[C@@H](C)c3ccccc3)CC2)cn1 [Example 81, (R)-3-((4-Hydroxy-1-(3-phenylbutanoyl)piperidin-4-yl)methyl)-6-isopropylpyrimidin-4(3H)-one] |
| 1000 to 200000 | C[C@H](CC(=O)N1CCC(O)(Cn2cnc(NCC3CCOCC3)cc2=O)CC1)c1ccccc1 [Example 163, (R)-3-((4-hydroxy-1-(3-phenylbutanoyl)piperidin-4-yl)methyl)-6-(((tetrahydro-2H-pyran-4-yl)methyl)amino)pyrimidin-4(3H)-one] |
| 1000 to 200000 | C[C@H](CC(=O)N1CCC(O)(Cn2cnc(NC3CCOC3)cc2=O)CC1)c1ccccc1 (stereo partly drawn) [Example 151, 3-((4-hydroxy-1-((R)-3-phenylbutanoyl)piperidin-4-yl)methyl)-6-((tetrahydrofuran-3-yl)amino)pyrimidin-4(3H)-one] |
| 250 to 999 | C[C@H](CC(=O)N1CCC(O)(Cn2cnc(N[C@@H]3CCNC3)cc2=O)CC1)c1ccccc1 [Example 110, 3-((4-Hydroxy-1-((R)-3-phenylbutanoyl)piperidin-4-yl)methyl)-6-(((R)-pyrrolidin-3-yl)amino)pyrimidin-4(3H)-one] |
| < 250 | O=C(c1cnc(C2CC2)o1)N1CCC(O)(Cn2cnc3c(cc(Cl)n3-c3cccc(Br)c3)c2=O)CC1 [Example 213, 7-(3-Bromophenyl)-6-chloro-3-((1-(2-cyclopropyloxazole-5-carbonyl)-4-hydroxypiperidin-4-yl)methyl)-3H-pyrrolo[2,3-d]pyrimidin-4(7H)-one] |
| 250 to 999 | C=C(C)[C@H](C)CC(=O)N1CCC(O)(Cn2cnc3c(-c4ccccc4)n(C)nc3c2=O)CC1 [Example 35, (R)-6-((1-(3,4-Dimethylpent-4-enoyl)-4-hydroxypiperidin-4-yl)methyl)-2-methyl-3-phenyl-2H-pyrazolo[4,3-d]pyrimidin-7(6H)-one] |
| 1000 to 200000 | C[C@H](CC(=O)N1CCC(O)(Cn2cnc(NC3(C)COC3)cc2=O)CC1)c1ccccc1 [Example 155, (R)-3-((4-hydroxy-1-(3-phenylbutanoyl)piperidin-4-yl)methyl)-6-((3-methyloxetan-3-yl)amino)pyrimidin-4(3H)-one] |
| 250 to 999 | C[C@H](CC(=O)N1CCC(O)(Cn2cnc(N[C@@H]3CCCC[C@@H]3N)cc2=O)CC1)c1ccccc1 (racemic) [Example 64, 6-(((±-cis-1,2)-2-Aminocyclohexyl)amino)-3-((4-hydroxy-1-((R)-3-phenylbutanoyl)piperidin-4-yl)methyl)pyrimidin-4(3H)-one, Formic Acid] |
| 1000 to 200000 | C[C@H](CC(=O)N1CCC(O)(Cn2cnc(N(C)CCO)cc2=O)CC1)c1ccccc1 [Example 166, (R)-3-((4-hydroxy-1-(3-phenylbutanoyl)piperidin-4-yl)methyl)-6-((2-hydroxyethyl)(methyl)amino)pyrimidin-4(3H)-one] |
| 1000 to 200000 | C[C@H](CC(=O)N1CCC(O)(Cn2cnc(/C=C/CN3CC[C@H](N)C3)cc2=O)CC1)c1ccccc1 [Example 56, 6-((E)-3-((S)-3-Aminopyrrolidin-1-yl)prop-1-en-1-yl)-3-((4-hydroxy-1-((R)-3-phenylbutanoyl)piperidin-4-yl)methyl)pyrimidin-4(3H)-one, Formic Acid] |
| 1000 to 200000 | C[C@H](CC(=O)N1CCC(O)(Cn2cnc(/C=C/CN3CCCC3)cc2=O)CC1)c1ccccc1 [Example 51, (R,E)-3-((4-Hydroxy-1-(3-phenylbutanoyl)piperidin-4-yl)methyl)-6-(3-(pyrrolidin-1-yl)prop-1-en-1-yl)pyrimidin-4(3H)-one] |
| < 250 | Cn1nc2c(=O)n(CC3(O)CCN(C(=O)C[C@H](c4ccc(F)cc4)C(F)(F)F)CC3)cnc2c1-c1ccc(CN)cc1 [Example 85, (R)-3-(4-(Aminomethyl)phenyl)-6-((4-hydroxy-1-(4,4,4-trifluoro-3-(4-fluorophenyl)butanoyl)piperidin-4-yl)methyl)-2-methyl-2H-pyrazolo[4,3-d]pyrimidin-7(6H)-one] |

| Compound | IC50 [nM] |
| --- | --- |
| C[C@H](CC(=O)N1CCC(O)(Cn2cnc(NC[C@H](C)N3CCCC3)cc2=O)CC1)c1ccccc1 [Example 59, 3-((4-Hydroxy-1-((R)-3-phenylbutanoyl)piperidin-4-yl)methyl)-6-(((S)-2-(pyrrolidin-1-yl)propyl)amino)pyrimidin-4(3H)-one, Formic Acid] | < 250 |
| CCn1nc2c(=O)n(CC3(O)CCN(C(=O)C[C@H](c4ccccc4)C(F)(F)F)CC3)cnc2c1-c1ccc(CN)cc1 [Example 120] | < 250 |

Same assay, conditions: USP7 IC50, Table 3, effect of the R2 substituent

| IC50 [nM] | Compound |
| --- | --- |
| 600 | C[C@H](CC(=O)N1CCC(O)(Cn2cnc3c(C(F)(F)F)n(C)nc3c2=O)CC1)c1ccccc1 [Example 23, (R)-6-((4-Hydroxy-1-(3-phenylbutanoyl)piperidin-4-yl)methyl)-2-methyl-3-(trifluoromethyl)-2H-pyrazolo[4,3-d]pyrimidin-7(6H)-one] |

Same assay, conditions: USP7 IC50, Table 4, biochemical assay; average of at least duplicate experiments

| IC50 [nM] | Compound |
| --- | --- |
| 250 to 999 | C[C@H](CC(=O)N1CCC(O)(Cn2cnc3c(C(F)(F)F)n(C)nc3c2=O)CC1)c1ccccc1 [Example 23, (R)-6-((4-Hydroxy-1-(3-phenylbutanoyl)piperidin-4-yl)methyl)-2-methyl-3-(trifluoromethyl)-2H-pyrazolo[4,3-d]pyrimidin-7(6H)-one] |
| 250 to 999 | C[C@H](CC(=O)N1CCC(O)(Cn2cnc(NC3CCCC3)cc2=O)CC1)c1ccccc1 [Example 167, (R)-6-(cyclopentylamino)-3-((4-hydroxy-1-(3-phenylbutanoyl)piperidin-4-yl)methyl)pyrimidin-4(3H)-one] |
| 250 to 999 | C[C@H](CC(=O)N1CCC(O)(Cn2cnc(N3CCC4(COC4)C3)cc2=O)CC1)c1ccccc1 [Example 179, (R)-3-((4-hydroxy-1-(3-phenylbutanoyl)piperidin-4-yl)methyl)-6-(2-oxa-6-azaspiro[3.4]octan-6-yl)pyrimidin-4(3H)-one] |
| 250 to 999 | C[C@H](CC(=O)N1CCC(O)(Cn2cnc(N3CC[C@H](N(C)C)C3)cc2=O)CC1)c1ccccc1 [Example 62, 6-((S)-3-(Dimethylamino)pyrrolidin-1-yl)-3-((4-hydroxy-1-((R)-3-phenylbutanoyl)piperidin-4-yl)methyl)pyrimidin-4(3H)-one] |
| 250 to 999 | C[C@H](CC(=O)N1CCC(O)(Cn2cnc(N3CC4(CCCN4C)C3)cc2=O)CC1)c1ccccc1 [Example 178, (R)-3-((4-hydroxy-1-(3-phenylbutanoyl)piperidin-4-yl)methyl)-6-(5-methyl-2,5-diazaspiro[3.4]octan-2-yl)pyrimidin-4(3H)-one] |

| Compound | IC50 [nM] |
| --- | --- |
| C[C@H](CC(=O)N1CCC(O)(Cn2cnc(N3CCC4(CCNC4)CC3)cc2=O)CC1)c1ccccc1 [Example 49, (R)-3-((4-Hydroxy-1-(3-phenylbutanoyl)piperidin-4-yl)methyl)-6-(2,8-diazaspiro[4.5]decan-8-yl)pyrimidin-4(3H)-one hydrochloride] | 250 to 999 |

— US10766903B2 (ALMAC DISCOVERY LIMITED, priority 2016, dated 2020)
